The values that follow come from patent US4401594A, “L-Argininal derivatives and a method of manufacturing the same” (Nippon Kayaku Kabushiki Kaisha, priority 1980, dated 1983).

Counter-ions that a name gives are not always drawn. Where a SMILES comes first, the peptide text is derived from it. [ ]: non-standard residue; d: D form. The star is where a group is joined. pGlu = O=C1CC[C@@H](C(=O)O)N1; Cbz = O=C(OCc1ccccc1)*

Usually IC50 stands for the concentration that inhibits the measured activity by half.

The target in one assay is T1, plasmin (Homo sapiens, UniProt P00747).
T1 construct: fibrinogen substrate
T1 sequence (P00779 27-440): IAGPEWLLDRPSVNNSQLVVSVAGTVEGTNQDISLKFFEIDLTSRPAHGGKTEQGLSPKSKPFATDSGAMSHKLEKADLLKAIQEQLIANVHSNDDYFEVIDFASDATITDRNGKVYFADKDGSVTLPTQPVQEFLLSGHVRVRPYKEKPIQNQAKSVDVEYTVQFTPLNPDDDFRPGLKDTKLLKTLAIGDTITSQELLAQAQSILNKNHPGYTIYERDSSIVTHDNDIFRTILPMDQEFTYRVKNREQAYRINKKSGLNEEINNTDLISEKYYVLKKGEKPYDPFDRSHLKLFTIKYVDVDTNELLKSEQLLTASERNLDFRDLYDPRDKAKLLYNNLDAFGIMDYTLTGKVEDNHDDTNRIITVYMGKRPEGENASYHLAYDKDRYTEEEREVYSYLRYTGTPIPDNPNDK
T1 sequence (P00747 97-810): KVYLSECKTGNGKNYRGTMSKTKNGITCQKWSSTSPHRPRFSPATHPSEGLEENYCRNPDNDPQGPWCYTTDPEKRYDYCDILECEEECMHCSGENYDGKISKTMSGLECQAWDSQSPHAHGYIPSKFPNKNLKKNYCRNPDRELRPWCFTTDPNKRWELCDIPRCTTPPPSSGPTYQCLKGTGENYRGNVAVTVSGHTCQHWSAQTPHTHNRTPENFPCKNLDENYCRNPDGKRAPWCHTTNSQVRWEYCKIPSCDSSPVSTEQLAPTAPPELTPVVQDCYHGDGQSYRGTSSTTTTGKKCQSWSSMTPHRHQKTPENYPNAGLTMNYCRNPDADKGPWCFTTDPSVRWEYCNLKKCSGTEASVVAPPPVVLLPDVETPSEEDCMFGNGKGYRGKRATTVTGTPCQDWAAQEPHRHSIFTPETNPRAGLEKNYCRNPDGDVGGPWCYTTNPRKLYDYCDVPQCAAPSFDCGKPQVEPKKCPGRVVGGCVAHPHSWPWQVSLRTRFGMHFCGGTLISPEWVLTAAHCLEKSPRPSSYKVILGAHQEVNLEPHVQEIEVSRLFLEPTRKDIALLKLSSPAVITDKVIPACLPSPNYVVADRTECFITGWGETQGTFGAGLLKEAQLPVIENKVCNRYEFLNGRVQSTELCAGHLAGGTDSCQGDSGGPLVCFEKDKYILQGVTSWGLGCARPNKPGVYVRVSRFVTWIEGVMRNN
In words: Determination of Anti-Plasmin Activity. It counts as biochemical. As to conditions: fibrinogen substrate, plasminogen from human serum + streptokinase, pH 7.2, 37° C., 20 minutes; read-out: IC50 Plasmin (converted). On the procedure:
The inhibitory activity of the compounds on each protease was determined as follows:
Buffer solution: pH 7.2, 0.01 M phosphate buffer solution.
Substrate: 2 g of fibrinogen (Armour Pharm. Co., U.S.A.) were dissolved in 100 ml of the phosphate buffer solution under heat.
Enzyme: The human serum was mixed with 20 times as much water, and after acetic acid had been added into the mixture to adjust it to pH 5.2, the solution was left at room temperature for half an hour. The precipitates obtained by centrifugation at 3,000 rpm for 10 minutes was dissolved in an equal quantity of the buffer solution to that of the serum, and the resulting solution was subjected to centrigugation at 10,000 rpm for half an hour, whereby a plasminogen solution was obtained as the supernatant. A solution of streptokinase (Varidase, Lederle Lab., U.S.A.) having a concentration of 10,000 U/ml was prepared, and kept in a cold and dark place. Prior to use, it was diluted with the buffer solution into a solution having a concentration of 2,000 U/ml. The enzyme solution was adjusted prior to use so that 0.5 ml thereof might show an absorbance of about 0.4 at 280 nm after 20 minutes of reaction.
Method: 0.5 ml of the plasminogen solution, 0.3 ml of the phosphate buffer solution, 0.1 ml of the streptokinase solution, and 0.1 ml of the test sample or water were placed in a test tube (15 mm×100 mm). After the mixed solution in the test tube had been heated at 37° C. for three minutes, 2.0 ml of the fibrinogen solution were added into the solution in the test tube, and reacted therewith at 37° C. for 20 minutes. When the reaction had been completed, 1.5 ml of a 1.7 M perchloric acid solution were added into the test tube, and its contents were shaken slightly. After the test tube had been stood at room temperature for an hour, its contents were subjected to centrigugation at 3,000 rpm for 10 minutes. The absorbance (a) of the supernatant thus obtained was measured at 280 nm. The absorbance (b) of the controll solution not containing any compound of this invention was also measured.
The inhibition coefficients of the compounds of this invention on each enzyme were calculated from the absorbances (a) and (b) obtained as hereinabove described, in accordance with the following formula: [formula] These inhibition rates were obtained for various concentrations of the compounds according to this invention, and the concentration of a 50% inhibition (IC50) were calculated therefrom.
For the molecule `CC(C)C[C@H](NC(=O)C(O)c1ccccc1)C(=O)N[C@H](C=O)CCCNC(=N)N` (mixture of isomers) [Compound No. 35, DL-Mandelyl-L-leucyl-L-argininal hydrochloride], the IC50 is 3.17 µM. Still for that read-out and setting: in the case of `CCCC(=O)N[C@@H](CC(C)C)C(=O)N[C@H](C=O)CCCNC(=N)N` [Compound No. 1, n-Butanoyl-L-leucyl-L-argininal hydrochloride] it was 37.8 µM; in that of `CCC(CC)C(=O)N[C@@H](CC(C)C)C(=O)N[C@H](C=O)CCCNC(=N)N` [Compound No. 2, 2-Ethylbutanoly-L-leucyl-L-argininal hydrochloride], 81.2 µM. Same read-out and setting: as for `CCCCCC(=O)N[C@@H](CC(C)C)C(=O)N[C@H](C=O)CCCNC(=N)N` [Compound No. 3, n-Hexanoly-L-leucyl-L-argininal hydrochloride], the figure is 16.8 µM; as for `CC(C)CC(=O)N[C@@H](CC(C)C)C(=O)N[C@H](C=O)CCCNC(=N)N` [Compound No. 4, 3-Methylbutanoyl-L-leucyl-L-argininal hydrochloride], 21.4 µM. Same read-out and setting: as for `CCCCCCCCC(=O)N[C@@H](CC(C)C)C(=O)N[C@H](C=O)CCCNC(=N)N` [Compound No. 5, n-Nonanoyl-L-leucyl-L-argininal hydrochloride], the figure is 2.68 µM; as for `CC(C)C[C@H](NC(=O)C1CCCCC1)C(=O)N[C@H](C=O)CCCNC(=N)N` [Compound No. 6, Cyclohexanecarbonyl-L-leucyl-L-argininal hydrochloride], 56 µM. In the case of `CC(C)C[C@H](NC(=O)c1ccccc1)C(=O)N[C@H](C=O)CCCNC(=N)N` [Compound No. 8, Benzoyl-L-leucyl-L-argininal hydrochloride], the IC50 was 44.4 µM.

With `CC(C)C[C@H](NC(=O)c1cccc(Cl)c1)C(=O)N[C@H](C=O)CCCNC(=N)N` [Compound No. 9, m-Chlorobenzoyl-L-leucyl-L-argininal hydrochloride], the IC50 was 13.4 µM. On the same count and under the same terms, in the case of `Cc1ccc(C(=O)N[C@@H](CC(C)C)C(=O)N[C@H](C=O)CCCNC(=N)N)cc1` [Compound No. 10, p-Methylbenzoyl-L-leucyl-L-argininal hydrochloride] it was 32.9 µM; in that of `COc1ccc(C(=O)N[C@@H](CC(C)C)C(=O)N[C@H](C=O)CCCNC(=N)N)cc1` [Compound No. 11, p-Methoxybenzoyl-L-leucyl-L-argininal hydrochloride], 39.1 µM.

With `CC(C)C[C@H](NC(=O)c1ccc([N+](=O)[O-])cc1)C(=O)N[C@H](C=O)CCCNC(=N)N` [Compound No. 12, p-Nitrobenzoyl-L-leucyl-L-argininal hydrochloride], the IC50 was 30.6 µM. As for `CC(C)C[C@H](NS(=O)(=O)c1ccccc1)C(=O)N[C@H](C=O)CCCNC(=N)N` [Compound No. 13, Benzenesulfonyl-L-leucyl-L-argininal hydrochloride], the IC50 is 23.9 µM. As to `Cc1ccc(S(=O)(=O)N[C@@H](CC(C)C)C(=O)N[C@H](C=O)CCCNC(=N)N)cc1` [Compound No. 14, p-Toluenesulfonyl-L-leucyl-L-argininal hydrochloride], the IC50 was 14.5 µM. Still for that read-out and setting: as for `CC(C)C[C@H](NC(=O)Cc1ccccc1)C(=O)N[C@H](C=O)CCCNC(=N)N` [Compound No. 15, Phenylacetyl-L-leucyl-L-argininal hydrochloride], the figure is 14.6 µM. Same read-out and setting: in the case of `CC(C)C[C@H](NC(=O)Cc1ccccc1[N+](=O)[O-])C(=O)N[C@H](C=O)CCCNC(=N)N` [Compound No. 16, o-Nitrophenylacetyl-L-leucyl-L-argininal hydrochloride] it was 42.5 µM; in that of `CC(C)C[C@H](NC(=O)Cc1ccc([N+](=O)[O-])cc1)C(=O)N[C@H](C=O)CCCNC(=N)N` [Compound No. 17, p-Nitrophenylacetyl-L-leucyl-L-argininal hydrochloride], 3.61 µM. Regarding `CC(C)C[C@H](NC(=O)Cc1ccccc1O)C(=O)N[C@H](C=O)CCCNC(=N)N` [Compound No. 18, o-Hydroxyphenylacetyl-L-leucyl-L-argininal hydrochloride], the IC50 is 12.9 µM. Same read-out and setting: as for `CC(C)C[C@H](NS(=O)(=O)c1cccc2ccccc12)C(=O)N[C@H](C=O)CCCNC(=N)N` [Compound No. 20, 1-Naphthalenesulfonyl-L-leucyl-L-argininal hydrochloride], the figure is 28.2 µM; as for `CC(C)C[C@H](NS(=O)(=O)c1cccc2c(N(C)C)cccc12)C(=O)N[C@H](C=O)CCCNC(=N)N` [Compound No. 21, 5-Dimethylamino-1-naphthalenesulfonyl-L-leucyl-L-argininal 2 hydrochloride], 24.4 µM; as for `CC(C)C[C@H](NC(=O)OCc1ccccc1)C(=O)N[C@H](C=O)CCCNC(=N)N` [Compound No. 25, Benzyloxycarbonyl-L-leucyl-L-argininal hydrochloride], 33.9 µM.

Regarding `CC(C)C[C@H](NC(=O)c1ccco1)C(=O)N[C@H](C=O)CCCNC(=N)N` [Compound No. 26, Furan-2-carbonyl-L-leucyl-L-argininal hydrochloride], the IC50 is 90.3 µM. For the molecule `CC(C)C[C@H](NC(=O)[C@@H]1CCC(=O)N1C(=O)OCc1ccccc1)C(=O)N[C@H](C=O)CCCNC(=N)N` [Compound No. 30, N-Benzyloxycarbonyl-L-pyroglutamyl-L-leucyl-L-argininal hydrochloride], the IC50 was 0.958 µM.

As for `CC(C)C[C@H](NC(=O)[C@@H]1CCC(=O)N1)C(=O)N[C@H](C=O)CCCNC(=N)N` [Compound No. 31, L-Pyroglutamyl-L-leucyl-L-argininal hydrochloride] ([pGlu]-Leu-Arg-aldehyde), the IC50 is 1.19 µM.

For the molecule `CC(C)C[C@H](NC(=O)[C@H](Cc1ccccc1)NC(=O)OCc1ccccc1)C(=O)N[C@H](C=O)CCCN=C(N)N` [Compound No. 36, N-Benzyloxycarbonyl-L-phenylalanyl-L-leucyl-L-argininal hydrochloride] (Cbz-Phe-Leu-Arg-aldehyde), the IC50 was 1.24 µM.

Turning to `CC(=O)N[C@@H](CC(C)C)C(=O)N[C@@H](CC(C)C)C(=O)N[C@H](C=O)CCCNC(=N)N` [Leupeptin, acetyl or propionyl-L-leucyl-L-leucyl-L-argininal], the IC50 was 11 µM.

Still in this assay, the particulars now being: read-out: IC50 Plasmin; fibrinogen substrate, plasminogen from human serum + streptokinase, pH 7.2, 37° C., 20 minutes.
Take `CC(C)C[C@H](NC(=O)c1ccncc1)C(=O)N[C@H](C=O)CCCNC(=N)N` [Compound No. 22, Isonicotinyl-L-leucyl-L-argininal hydrochloride]: the IC50 is 88.7 µM. Still for that read-out and setting: as for `CC(C)C[C@H](NC(=O)c1cccnc1)C(=O)N[C@H](C=O)CCCNC(=N)N` [Compound No. 23, Nicotinyl-L-leucyl-L-argininal hydrochloride], the figure is 23.9 µM; as for `CC(C)C[C@H](NC(=O)[C@@H](O)[C@@H](Cc1ccccc1)NC(=O)OCc1ccccc1)C(=O)N[C@H](C=O)CCCNC(=N)N` [Compound No. 37, N-Benzyloxycarbonyl-(2S,3R)-3-amino-2-hydroxy-4-phenylbutanoyl-L-leucyl-L-argininal hydrochloride], 2.4 µM.

Another assay has as its system fibrinolytic system.
Assay: not given
As to conditions: cited from earlier work.
As to `CC(=O)N[C@@H](CC(C)C)C(=O)N[C@@H](CC(C)C)C(=O)N[C@H](C=O)CCCNC(=N)N` [Leupeptin, acetyl or propionyl-L-leucyl-L-leucyl-L-argininal], the “pharmacological action on the fibrinolytic system” value is given as “a pharmacological action on the fibrinolytic system”.

For a further assay, the system named is chickens with spontaneous muscular dystrophy.
Assay: not given
The conditions noted are these: Libby et al., Science 1978; cited from earlier work.
Take `CC(=O)N[C@@H](CC(C)C)C(=O)N[C@@H](CC(C)C)C(=O)N[C@H](C=O)CCCNC(=N)N` [Leupeptin, acetyl or propionyl-L-leucyl-L-leucyl-L-argininal]: the “inhibition of atrophy of the muscles” value is “inhibits the atrophy of the muscles”.
